Reference: patent publication US20230172867A1, “A METHOD FOR TREATING CANCER WITH AN ORAL DOSAGE FORM OF AN FGFR4 INHIBITOR” (Eisai R&D Management Co., Ltd., priority 2020, published 2023)
Read-outs that look alike come from different tables or passages of the source.

Assay: Pharmacokinetic measurements of H3B-6527 capsules in patients (trial NCT02834780), plasma LC-MS/MS
Type: in vivo, human
Settings: human, plasma, oral; for AUC: read-out: AUC, geometric mean (CV%); for Cmax: read-out: Cmax, geometric mean (CV%)
Source text: A description of the first in human clinical trial for H3B-6527 can be found at the ClinicalTrials.gov by searching for trial identifier NCT02834780. In summary, the trial included a study population having the following characteristics: Adult patients ≥18 years old with advanced HCC or ICC; Progression after at least one prior therapy; ECOG score of 0 or 1; Well compensated liver function; FGF19-positive (dose expansion phase only); Excluded if patients have significant active infections [except hepatitis B virus (HBV) and hepatitis C virus (HCV)], gastric or esophageal varices, or previous FGF19-FGFR4 targeted therapy.
Blood samples are collected at the planned time points from each patient and centrifuged. The plasma portion of each sample is then transferred to a K2EDTA tube, which is then shipped to a bioanalytical lab for concentration measurement using LC-MS/MS. The concentration data are then analyzed using Phoenix® WinNonlin software to obtain PK parameters. The obtained PK parameters are further summarized using analytical software.
Drug Administration and Dosage for Dose Escalation: H3B-6527 was administered orally QD or BID on a 21-day cycle. […] Patients in dose escalation phase were treated regardless of FGF19 status. Response determined by RECIST 1.1/modified RECIST every 6 weeks
Further collection and collation of the PK results of the trial of Example 2 at a later point in time are reflected in the following Table 5:
The results of further analysis of the PK data of the trial of Example 2 with the actual date and time of the dose administration and PK sampling after QC, an update from the results of a preliminary analysis with the nominal (i.e. planned) dosing/PK sampling date/time presented in Example 3, are reflected in the following Table 6. In this example the number of patients from which each PK parameter was calculated is shown, rather than the total number of patients receiving a particular dose and regimen as in Table 5.

[1] = 600 mg, 600 mg QD, fed, Day 8, Table 6, actual times after QC
[2] = 700 mg, 700 mg BID, fed, Day 1, Table 6, actual times after QC
[3] = 700 mg, 700 mg BID, fed, Day 8, Table 6, actual times after QC
[4] = 1000 mg, 1000 mg QD, fasted, Day 1, Table 6, actual times after QC
[5] = 1000 mg, 1000 mg QD, fasted, Day 8, Table 6, actual times after QC
[6] = 1000 mg, 1000 mg QD, fed, Day 1, Table 6, actual times after QC
[7] = 1000 mg, 1000 mg QD, fed, Day 8, Table 6, actual times after QC
[8] = 1400 mg, 1400 mg QD, fasted, Day 1, Table 6, actual times after QC
[9] = 1400 mg, 1400 mg QD, fasted, Day 8, Table 6, actual times after QC
[10] = 1400 mg, 1400 mg QD, fed, Day 1, Table 6, actual times after QC
[11] = 1400 mg, 1400 mg QD, fed, Day 8, Table 6, actual times after QC
[12] = 2000 mg, 2000 mg QD, fed, Day 1, Table 6, actual times after QC
[13] = 2000 mg, 2000 mg QD, fed, Day 8, Table 6, actual times after QC

For `C=CC(=O)Nc1cc(N2CCN(CC)CC2)ccc1Nc1cc(N(C)C(=O)Nc2c(Cl)c(OC)cc(OC)c2Cl)ncn1` [H3B-6527, N-(2-((6-(3-(2,6-dichloro-3,5-dimethoxyphenyl)-1-methylureido)pyrimidin-4-yl)amino)-5-(4-ethylpiperazin-1-yl)phenyl)acrylamide], the Tmax (600 mg, 600 mg QD, fed, Day 8, Table 5, nominal times, read-out: Tmax, median (min-max)) was 4.52 h, the AUC [1] was 501 ng·h/mL and the Cmax [1] was 99.6 ng/mL. The half-life (600 mg, 600 mg QD, fed, Day 8, Table 6, actual times after QC, read-out: Half-life, geometric mean (CV%) (converted)) was 353 min, the Tmax (600 mg, 600 mg QD, fed, Day 8, Table 6, actual times after QC, read-out: Tmax, median (min-max)) was 4.52 h and the Cmax (700 mg, 700 mg BID, fed, Day 1, Table 5, nominal times) was 163 ng/mL. The half-life (700 mg, 700 mg BID, fed, Day 1, Table 5, nominal times, read-out: Half-life, geometric mean (CV%) (converted)) was 126 min, the Tmax (700 mg, 700 mg BID, fed, Day 1, Table 5, nominal times, read-out: Tmax, median (min-max)) was 2.02 h and the AUC [2] was 591 ng·h/mL. It also gave a Cmax [2] of 163 ng/mL, a half-life (700 mg, 700 mg BID, fed, Day 1, Table 6, actual times after QC, read-out: Half-life, geometric mean (CV%) (converted)) of 128 min and a Tmax (700 mg, 700 mg BID, fed, Day 1, Table 6, actual times after QC, read-out: Tmax, median (min-max)) of 2.02 h. It also gave a Cmax (700 mg, 700 mg BID, fed, Day 8, Table 5, nominal times) of 167 ng/mL, a half-life (700 mg, 700 mg BID, fed, Day 8, Table 5, nominal times, read-out: Half-life, geometric mean (CV%) (converted)) of 132 min and a Tmax (700 mg, 700 mg BID, fed, Day 8, Table 5, nominal times, read-out: Tmax, median (min-max)) of 4.12 h. The AUC [3] was 639 ng·h/mL, the Cmax [3] was 167 ng/mL and the half-life (700 mg, 700 mg BID, fed, Day 8, Table 6, actual times after QC, read-out: Half-life, geometric mean (CV%) (converted)) was 131 min. For the same compound, the Tmax (700 mg, 700 mg BID, fed, Day 8, Table 6, actual times after QC, read-out: Tmax, median (min-max)) was 4.12 h, the Cmax (1000 mg, 1000 mg QD, fasted, Day 1, Table 5, nominal times) was 146 ng/mL and the half-life (1000 mg, 1000 mg QD, fasted, Day 1, Table 5, nominal times, read-out: Half-life, geometric mean (CV%) (converted)) was 270 min. The Tmax (1000 mg, 1000 mg QD, fasted, Day 1, Table 5, nominal times, read-out: Tmax, median (min-max)) was 2.01 h, the AUC [4] was 854 ng·h/mL and the Cmax [4] was 225 ng/mL. The half-life (1000 mg, 1000 mg QD, fasted, Day 1, Table 6, actual times after QC, read-out: Half-life, geometric mean (CV%) (converted)) was 269 min, the Tmax (1000 mg, 1000 mg QD, fasted, Day 1, Table 6, actual times after QC, read-out: Tmax, median (min-max)) was 2.02 h and the Cmax (1000 mg, 1000 mg QD, fasted, Day 8, Table 5, nominal times) was 197 ng/mL. The half-life (1000 mg, 1000 mg QD, fasted, Day 8, Table 5, nominal times, read-out: Half-life, geometric mean (CV%) (converted)) was 270 min, the Tmax (1000 mg, 1000 mg QD, fasted, Day 8, Table 5, nominal times, read-out: Tmax, median (min-max)) was 2.02 h and the AUC [5] was 839 ng·h/mL. For the same compound, the Cmax [5] was 187 ng/mL, the half-life (1000 mg, 1000 mg QD, fasted, Day 8, Table 6, actual times after QC, read-out: Half-life, geometric mean (CV%) (converted)) was 290 min and the Tmax (1000 mg, 1000 mg QD, fasted, Day 8, Table 6, actual times after QC, read-out: Tmax, median (min-max)) was 2 h. For the same compound, the Cmax (1000 mg, 1000 mg QD, fed, Day 1, Table 5, nominal times) was 188 ng/mL, the half-life (1000 mg, 1000 mg QD, fed, Day 1, Table 5, nominal times, read-out: Half-life, geometric mean (CV%) (converted)) was 240 min and the Tmax (1000 mg, 1000 mg QD, fed, Day 1, Table 5, nominal times, read-out: Tmax, median (min-max)) was 5.05 h. It also gave an AUC [6] of 1120 ng·h/mL, a Cmax [6] of 182 ng/mL and a half-life (1000 mg, 1000 mg QD, fed, Day 1, Table 6, actual times after QC, read-out: Half-life, geometric mean (CV%) (converted)) of 236 min. It also gave a Tmax (1000 mg, 1000 mg QD, fed, Day 1, Table 6, actual times after QC, read-out: Tmax, median (min-max)) of 6 h, a Cmax (1000 mg, 1000 mg QD, fed, Day 8, Table 5, nominal times) of 199 ng/mL and a half-life (1000 mg, 1000 mg QD, fed, Day 8, Table 5, nominal times, read-out: Half-life, geometric mean (CV%) (converted)) of 252 min. For the same compound, the Tmax (1000 mg, 1000 mg QD, fed, Day 8, Table 5, nominal times, read-out: Tmax, median (min-max)) was 4.08 h, the AUC [7] was 796 ng·h/mL and the Cmax [7] was 177 ng/mL. The half-life (1000 mg, 1000 mg QD, fed, Day 8, Table 6, actual times after QC, read-out: Half-life, geometric mean (CV%) (converted)) was 370 min, the Tmax (1000 mg, 1000 mg QD, fed, Day 8, Table 6, actual times after QC, read-out: Tmax, median (min-max)) was 2 h and the half-life (1000 mg, following administration of 1000 mg (fasted), read-out: mean terminal half-life) was 240 to 300 min. For the same compound, the Cmax (1400 mg, 1400 mg QD, fasted, Day 1, Table 5, nominal times) was 136 ng/mL, the half-life (1400 mg, 1400 mg QD, fasted, Day 1, Table 5, nominal times, read-out: Half-life, geometric mean (CV%) (converted)) was 318 min and the Tmax (1400 mg, 1400 mg QD, fasted, Day 1, Table 5, nominal times, read-out: Tmax, median (min-max)) was 1 h. It also gave an AUC [8] of 400 ng·h/mL, a Cmax [8] of 136 ng/mL and a half-life (1400 mg, 1400 mg QD, fasted, Day 1, Table 6, actual times after QC, read-out: Half-life, geometric mean (CV%) (converted)) of 368 min. It also gave a Tmax (1400 mg, 1400 mg QD, fasted, Day 1, Table 6, actual times after QC, read-out: Tmax, median (min-max)) of 1 h, a Cmax (1400 mg, 1400 mg QD, fasted, Day 8, Table 5, nominal times) of 362 ng/mL and a half-life (1400 mg, 1400 mg QD, fasted, Day 8, Table 5, nominal times, read-out: Half-life, geometric mean (CV%) (converted)) of 294 min. It also gave a Tmax (1400 mg, 1400 mg QD, fasted, Day 8, Table 5, nominal times, read-out: Tmax, median (min-max)) of 2.1 h, an AUC [9] of 1260 ng·h/mL and a Cmax [9] of 362 ng/mL. For the same compound, the half-life (1400 mg, 1400 mg QD, fasted, Day 8, Table 6, actual times after QC, read-out: Half-life, geometric mean (CV%) (converted)) was 274 min, the Tmax (1400 mg, 1400 mg QD, fasted, Day 8, Table 6, actual times after QC, read-out: Tmax, median (min-max)) was 2.1 h and the Cmax (1400 mg, 1400 mg QD, fed, Day 1, Table 5, nominal times) was 904 ng/mL. The half-life (1400 mg, 1400 mg QD, fed, Day 1, Table 5, nominal times, read-out: Half-life, geometric mean (CV%) (converted)) was 246 min, the Tmax (1400 mg, 1400 mg QD, fed, Day 1, Table 5, nominal times, read-out: Tmax, median (min-max)) was 5 h and the AUC [10] was 5670 ng·h/mL. It also gave a Cmax [10] of 904 ng/mL, a half-life (1400 mg, 1400 mg QD, fed, Day 1, Table 6, actual times after QC, read-out: Half-life, geometric mean (CV%) (converted)) of 248 min and a Tmax (1400 mg, 1400 mg QD, fed, Day 1, Table 6, actual times after QC, read-out: Tmax, median (min-max)) of 5 h. The Cmax (1400 mg, 1400 mg QD, fed, Day 8, Table 5, nominal times) was 827 ng/mL, the half-life (1400 mg, 1400 mg QD, fed, Day 8, Table 5, nominal times, read-out: Half-life, geometric mean (CV%) (converted)) was 264 min and the Tmax (1400 mg, 1400 mg QD, fed, Day 8, Table 5, nominal times, read-out: Tmax, median (min-max)) was 5.86 h. For the same compound, the AUC [11] was 5450 ng·h/mL, the Cmax [11] was 827 ng/mL and the half-life (1400 mg, 1400 mg QD, fed, Day 8, Table 6, actual times after QC, read-out: Half-life, geometric mean (CV%) (converted)) was 285 min. The Tmax (1400 mg, 1400 mg QD, fed, Day 8, Table 6, actual times after QC, read-out: Tmax, median (min-max)) was 5.86 h, the Cmax (2000 mg, 2000 mg QD, fed, Day 1, Table 5, nominal times) was 525 ng/mL and the half-life (2000 mg, 2000 mg QD, fed, Day 1, Table 5, nominal times, read-out: Half-life, geometric mean (CV%) (converted)) was 330 min. It also gave a Tmax (2000 mg, 2000 mg QD, fed, Day 1, Table 5, nominal times, read-out: Tmax, median (min-max)) of 2 h, an AUC [12] of 2950 ng·h/mL and a Cmax [12] of 540 ng/mL. It also gave a half-life (2000 mg, 2000 mg QD, fed, Day 1, Table 6, actual times after QC, read-out: Half-life, geometric mean (CV%) (converted)) of 248 min, a Tmax (2000 mg, 2000 mg QD, fed, Day 1, Table 6, actual times after QC, read-out: Tmax, median (min-max)) of 2.1 h and a Cmax (2000 mg, 2000 mg QD, fed, Day 8, Table 5, nominal times) of 451 ng/mL. It also gave a half-life (2000 mg, 2000 mg QD, fed, Day 8, Table 5, nominal times, read-out: Half-life, geometric mean (CV%) (converted)) of 342 min, a Tmax (2000 mg, 2000 mg QD, fed, Day 8, Table 5, nominal times, read-out: Tmax, median (min-max)) of 2.5 h and an AUC [13] of 2580 ng·h/mL. It also gave a Cmax [13] of 502 ng/mL, a half-life (2000 mg, 2000 mg QD, fed, Day 8, Table 6, actual times after QC, read-out: Half-life, geometric mean (CV%) (converted)) of 299 min and a Tmax (2000 mg, 2000 mg QD, fed, Day 8, Table 6, actual times after QC, read-out: Tmax, median (min-max)) of 4 h. For the same compound, the Tmax (fasted, read-out: median plasma tmax) was 1 to 3 h.
